Series [1] has as its system cell lines with low and high ASNS expression. The series is described as follows: Bliss synergy of pathway inhibitors with JZP-458 (cytotoxicity readout). It counts as cell-based. Conditions: in combination with JZP-458. On the procedure:
Combination study BLISS matrix-Bliss Assay Protocol: Cells were plated in 384-well plates in 45 μl cell culture medium at a density of, that is, at numbers of cells per well as indicated in FIG. 24. For each cell line, the optimal cell density was determined a priori to obtain an optimal assay window. Plated cells were incubated in a humidified incubator with 5% CO2 at 37° C. 24 hours post-plating, 5 μl of compound dilution was added to each well and plates were further incubated for another 72 hours after which 25 μl of ATPlite 1 Step (PerkinElmer, Groningen, The Netherlands) solution was added to each well. Luminescence was recorded on an Envision multimode reader (PerkinElmer, Waltham, MA, U.S.A.). For determination of Bliss independence scores, two drugs were added in increasing concentrations in a 6×6 matrix. […] The percent viability for each drug either alone or in combination was determined relative to control samples and the Bliss independence scores for each combination were determined as described (Liu, Q., et al., Stat Biopharm. Res. 10: 112; 2018). […]

For series [2], the system named is BCL2 expression in triple hit lymphoma line WSU-DLCL2. The series is described as follows: qPCR gene expression after compound treatment. It is filed as cell-based. As for the experimental part: Cell Culture: Cell culture medium: RPMI 1640 medium (#2198761, Thermo Fisher) supplemented with 10% fetal calf serum (#S00AZ, BioWest) and 1% pen/strep (#15140-122, Thermo Fisher). At day-1, 900 μl cell suspension was seeded in 24-well plates (#662165, Greiner Bio-One) at a density of 128,000 cells/well. At day 0, 100 μl compound was added in three different concentrations to reach a final concentration of 0.316×IC50, 1×IC50, and 3.16×IC50 (unless indicated otherwise). To the control samples, 100 μl 20 mM HEPES+3.16% DMSO was added instead of compound. When the compound is prepared in HEPES instead of DMSO, 20 mM HEPES without DMSO was added to the cells. The cells were collected at 6 hours, 24 hours and 48 hours after addition of the compound and were transferred to a 96-well deep well plate and centrifuged for 5 min at 340×g. Prior to the collection of the cells microscopic pictures were taken from the untreated (control) cells. After removing the medium, 200 μl RNA protect (#76526, Qiagen) was added to the cell pellet and the cells were stored at −80° C.
RNA isolation: Total RNA was isolated with the SV96 Total RNA Isolation System kit (#Z3505, Promega) according to manufacturer's instructions. The procedure includes a ‘RNAse free DNAse’ gDNA removal step.
Determining the RNA concentration: RNA concentrations were determined with the RiboGreen (#R11490, Thermo Fisher) kit according to manufacturer's instructions.
cDNA synthesis: RNA was reverse transcribed into cDNA using the Quantitect Reverse Transcript Kit (#205313, Qiagen) according to manufacturer's instructions. This procedure includes a second ‘RNAse free DNAse’ gDNA removal step, ensuring the complete removal of gDNA from the samples. For each time point (6 h, 24 h, or 48 h) identical volumes of RNA were used for cDNA synthesis. After synthesis, cDNA is diluted with nuclease free water to obtain approximately similar cDNA concentrations per sample.
qPCR: 1) 50° C. for 10 min (Uracil-DNA glycosylase ([…]) step to remove all potential traces of amplicon DNA from previous qPCRs); 2) 5 min UDP inactivation/denaturation at 95° C.; 3) 40 cycles of 10s denaturation at 95° C., 20s annealing at 60° C., and 30s extension at 72° C.; and 4) Dissociation curve to determine the melting temperature of the qPCR amplicon.
qPCR Data Analysis: Cq and Tm raw data values are determined by the BioRad CFX manager software from the PCR machine. For every PCR sample that produced a Cq value the corresponding melting temperature of the PCR amplicon (Tm) was checked to identify samples that generated dual or a specific PCR products. A PCR product is regarded a specific when its Tm is >0.5° C. different from that the Tm of the specific PCR amplicon, in this case the Cq value is removed and not used for further data analysis. Cq values were than normalized by subtracting the (mean) Cq value of the two housekeeping genes (ACTB & RPS18) from the Cq value of the gene of interest. The normalized value is called DCq. The Cq difference between sample and the control (DDCq) was calculated by subtracting DCq control from DCq sample. The fold difference in expression between the control (no compound) and the compound treated sample is than calculated according the 2^-DDCq method.
In general terms: Quantitative PCR measures a nucleic acid by following its amplification.

The nature of series [3]: Aggregation of asparaginase batches. It counts as physicochemical. Conditions: product batches. An excerpt:
In some embodiments, the recombinant L-asparaginase of the disclosure has greater purity than other L-asparaginases. […] In some embodiments, the amount of aggregation of the recombinant L-asparaginase is less than 10%, 9%, 8%, 7%, 6%, 5%, 4%, 3%, 2%, 1%, 0.5%, 0.25%, 0.2%, 0.1%, or 0.01%. In some embodiments, the amount of aggregation seen in compositions containing the recombinant L-asparaginase is less than 1-10%. In some embodiments, the amount of aggregation seen in compositions containing the recombinant L-asparaginase is less than 10%. In some embodiments, the amount of aggregation of the recombinant L-asparaginase is less than 9%. In some embodiments, the amount of aggregation of the recombinant L-asparaginase is less than 8%. In some embodiments, the amount of aggregation of the recombinant L-asparaginase is less than 7%. In some embodiments, the amount of aggregation of the recombinant L-asparaginase is less than 6%. In some embodiments, the amount of aggregation of the recombinant L-asparaginase is less than 5%. In some embodiments, the amount of aggregation of the recombinant L-asparaginase is less than 4%. In some embodiments, the amount of aggregation of the recombinant L-asparaginase is less than 3%. In some embodiments, the amount of aggregation of the recombinant L-asparaginase is less than 2%. […]

The nature of series [4]: Half life of asparaginases. Conditions: in vivo.
Series [5] can be described thus: In vivo tolerability study in naïve SCID mice. Conditions: 150 U/kg in combination with venetoclax and R-CHOP constituents. The text has this:
Sensitivity to asparaginase and 11 chemotherapeutic agents (carfilzomib, doxorubicin, rapamycin, ibrutinib, cyclophosphamide, prednisolone, metformin, venetoclax, navitoclax, rituximab and vincristine) determined in 8 lymphoma lines, including diffuse large B-cell and Burkitt lymphomas. The investigated lymphoma lines are sensitive to asparagine depletion within the clinically achievable range. Expression of decisive genes (BCL2, BCL6, BCL2L1, MYC, ASNS) determined in 8 lymphoma lines (FIGS. 11 and 12). Increased expression of BCL2 served as marker for resistance of ibrutinib and rapamycin in triple hit lymphoma (FIGS. 11 and 12). Increased expression of ASNS served as marker for resistance of carfilzomib and asparaginase in Burkitt lymphoma (FIGS. 11 and 12). Identified combination agents that enhanced asparaginase activity in vitro include synergy of JZP458 and rituximab, venetoclax and ibrutinib in lymphoma lines (DLBCL) (see FIG. 13, FIG. 15, and FIG. 17). […] In vivo tolerability study of long acting Erwinia Asparaginase.

In the case of `CO[C@H]1C[C@@H]2CC[C@@H](C)[C@@](O)(O2)C(=O)C(=O)N2CCCC[C@H]2C(=O)O[C@H]([C@H](C)C[C@@H]2CC[C@@H](OCCO)[C@H](OC)C2)CC(=O)[C@H](C)/C=C(\C)[C@@H](O)[C@@H](OC)C(=O)[C@H](C)C[C@H](C)/C=C/C=C/C=C/1C` [everolimus], in series [1], the “Bliss sum score compared with PI3K inhibitors and MEK inhibitors” value was “increased”.
Take `C=CC(=O)N1CCC[C@@H](n2nc(-c3ccc(Oc4ccccc4)cc3)c3c(N)ncnc32)C1` [ibrutinib]: in series [2], the “increase of BCL2 expression” value came out at 1.25 fold.
Take `CO[C@H]1C[C@@H]2CC[C@@H](C)[C@@](O)(O2)C(=O)C(=O)N2CCCC[C@H]2C(=O)O[C@H]([C@H](C)C[C@@H]2CC[C@@H](O)[C@H](OC)C2)CC(=O)[C@H](C)/C=C(\C)[C@@H](O)[C@@H](OC)C(=O)[C@H](C)C[C@H](C)/C=C/C=C/C=C/1C` [rapamycin]: in series [2], the “increase of BCL2 expression” value is given as 1 fold.

B1: Erwinase: Erwinia chrysanthemi L-asparaginase type II product commercially approved for ALL (protein, UniProt P06608 22-348, looked up)
L-asparaginase: ADKLPNIVILATGGTIAGSAATGTQTTGYKAGALGVDTLINAVPEVKKLANVKGEQFSNMASENMTGDVVLKLSQRVNELLARDDVDGVVITHGTDTVEESAYFLHLTVKSDKPVVFVAAMRPATAISADGPMNLLEAVRVAGDKQSRGRGVMVVLNDRIGSARYITKTNASTLDTFKANEEGYLGVIIGNRIYYQNRIDKLHTTRSVFDVRGLTSLPKVDILYGYQDDPEYLYDAAIQHGVKGIVYAGMGAGSVSVRGIAGMRKAMEKGVVVIRSTRTGNGIVPPDEELPGLVSDSLNPAHARILLMLALTRTSDPKVIQEYFHTY
On to B1, for which, in series [3], the aggregation entry is listed as “about 6%”.

B2: JZP341: pasylated L-asparaginase; long acting Erwinia asparaginase (protein, UniProt P06608 22-348, looked up)
L-asparaginase: ADKLPNIVILATGGTIAGSAATGTQTTGYKAGALGVDTLINAVPEVKKLANVKGEQFSNMASENMTGDVVLKLSQRVNELLARDDVDGVVITHGTDTVEESAYFLHLTVKSDKPVVFVAAMRPATAISADGPMNLLEAVRVAGDKQSRGRGVMVVLNDRIGSARYITKTNASTLDTFKANEEGYLGVIIGNRIYYQNRIDKLHTTRSVFDVRGLTSLPKVDILYGYQDDPEYLYDAAIQHGVKGIVYAGMGAGSVSVRGIAGMRKAMEKGVVVIRSTRTGNGIVPPDEELPGLVSDSLNPAHARILLMLALTRTSDPKVIQEYFHTY
modifications: PASylated
Take B2: the “half life t½” value in series [4] was ~16 h. In addition, the tolerability entry in series [5] is “tolerated”.

The values are drawn from US20260007728A1, “COMBINATION THERAPIES INVOLVING L-ASPARAGINASE” (Jazz Pharmaceuticals Ireland Ltd., priority 2022, published 2026).
